ChEMBL document CHEMBL1629655, “Affinity of Tomopenem (CS-023) for penicillin-binding proteins in Staphylococcus aureus, Escherichia coli, and Pseudomonas aeruginosa” (Antimicrob Agents Chemother, 2009)
Converted amounts (≈) assume the structure as drawn. The source made the active and inactive calls. The calls are words filed in the database; no cut-off is given here.

How the values were obtained:
[1] = Displacement of [14C]benzylpenicillin from PBP1A in Pseudomonas aeruginosa ATCC 15692
Staphylococcus aureus [2] = assay: Antibacterial activity against Staphylococcus aureus SRR2a selected at 2 times MIC of tomopenem by microdilution method; assay type: functional
Staphylococcus aureus [3] = assay: Antibacterial activity against methicillin-sensitive Staphylococcus aureus by microdilution method; assay type: functional
Pseudomonas aeruginosa [4] = assay: Ratio of MIC for Pseudomonas aeruginosa PRR4a to MIC for Pseudomonas aeruginosa ATCC 15692; assay type: functional
Escherichia coli [5] = assay: Antibacterial activity against Escherichia coli NIHJ by microdilution method; assay type: functional, organism-based
[6] = Displacement of [14C]benzylpenicillin from PBP1 in Staphylococcus aureus ATCC 6538P
Escherichia coli [7] = assay: Antibacterial activity against Escherichia coli EIR4a selected at 4 times MIC of imipenem by microdilution method; assay type: functional
[8] = Displacement of [14C]benzylpenicillin from PBP5 in Escherichia coli NIHJ
[9] = Displacement of [14C]benzylpenicillin from PBP2 Staphylococcus aureus ATCC 6538P
[10] = Displacement of [14C]benzylpenicillin from PBP4 in Escherichia coli NIHJ
Escherichia coli [11] = assay: Ratio of MIC for Escherichia coli EIR2a to MIC for Escherichia coli NIHJ; assay type: functional
Escherichia coli [12] = assay: Ratio of MIC for Escherichia coli EIR2b to MIC for Escherichia coli NIHJ; assay type: functional
Escherichia coli [13] = assay: Antibacterial activity against Escherichia coli NIHJ assessed as appearance of spherical and bulge cells at 8 times MIC by Scanning electron microscopy; assay type: functional, organism-based
Pseudomonas aeruginosa [14] = assay: Antibacterial activity against Pseudomonas aeruginosa ATCC 15692 by microdilution method; assay type: functional, organism-based
Escherichia coli [15] = assay: Ratio of MIC for Escherichia coli ERR4a to MIC for Escherichia coli NIHJ; assay type: functional
[16] = Displacement of [14C]benzylpenicillin from PBP 6 in Pseudomonas aeruginosa ATCC 15692
Escherichia coli [17] = assay: Antibacterial activity against Escherichia coli ERR2a selected at 2 times MIC of tomopenem by microdilution method; assay type: functional
[18] = Displacement of [14C]benzylpenicillin from PBP3 in Pseudomonas aeruginosa ATCC 15692
Escherichia coli [19] = assay: Ratio of MIC for Escherichia coli EIR4a to MIC for Escherichia coli NIHJ; assay type: functional
Escherichia coli [20] = assay: Antibacterial activity against Escherichia coli EIR2b selected at 2 times MIC of imipenem by microdilution method; assay type: functional
[21] = Displacement of [14C]benzylpenicillin from PBP6 Escherichia coli NIHJ
[22] = Displacement of [14C]benzylpenicillin from PBP4 in Staphylococcus aureus ATCC 6538P
Pseudomonas aeruginosa [23] = assay: Ratio of MIC for Pseudomonas aeruginosa PIR2a to MIC for Pseudomonas aeruginosa ATCC 15692; assay type: functional
[24] = Displacement of [14C]benzylpenicillin from PBP 5 in Pseudomonas aeruginosa ATCC 15692
Escherichia coli [25] = assay: Ratio of MIC for Escherichia coli EIR8a to MIC for Escherichia coli NIHJ; assay type: functional
[26] = Displacement of [14C]benzylpenicillin from PBP1B in Escherichia coli NIHJ
Escherichia coli [27] = assay: Antibacterial activity against Escherichia coli EIR8a selected at 8 times MIC of imipenem by microdilution method; assay type: functional
Staphylococcus aureus [28] = assay: Antibacterial activity against Staphylococcus aureus ATCC 6538P assessed as fold decrease in compound susceptibility after 10 passages relative to control; assay type: functional
[29] = Displacement of [14C]benzylpenicillin from PBP1B in Pseudomonas aeruginosa ATCC 15692
Escherichia coli [30] = assay: Antibacterial activity against Escherichia coli EIR2a selected at 2 times MIC of imipenem by microdilution method; assay type: functional
[31] = Displacement of [14C]benzylpenicillin from PBP4 in Pseudomonas aeruginosa ATCC 15692
Escherichia coli [32] = assay: Antibacterial activity against Escherichia coli EMR2a selected at 2 times MIC of meropenem by microdilution method; assay type: functional
Escherichia coli [33] = assay: Ratio of MIC for Escherichia coli EIR4b to MIC for Escherichia coli NIHJ; assay type: functional
Escherichia coli [34] = assay: Antibacterial activity against Escherichia coli EIR4b selected at 4 times MIC of imipenem by microdilution method; assay type: functional
Staphylococcus aureus [35] = assay: Ratio of MIC for Staphylococcus aureus SMR2a to MIC for Staphylococcus aureus ATCC 6538P; assay type: functional
Pseudomonas aeruginosa [36] = assay: Antibacterial activity against Pseudomonas aeruginosa PRR4a selected at 4 times MIC of tomopenem by microdilution method; assay type: functional
Escherichia coli [37] = assay: Antibacterial activity against Escherichia coli ERR8a selected at 8 times MIC of tomopenem by microdilution method; assay type: functional
Staphylococcus aureus [38] = assay: Antibacterial activity against methicillin-resistant Staphylococcus aureus by microdilution method; assay type: functional
Pseudomonas aeruginosa [39] = assay: Ratio of MIC for Pseudomonas aeruginosa PMR2a to MIC for Pseudomonas aeruginosa ATCC 15692; assay type: functional
Escherichia coli [40] = assay: Ratio of MIC for Escherichia coli ERR2b to MIC for Escherichia coli NIHJ; assay type: functional
Pseudomonas aeruginosa [41] = assay: Antibacterial activity against Pseudomonas aeruginosa ATCC 15692 assessed as appearance of bulge cells at MIC by Scanning electron microscopy; assay type: functional, organism-based
Staphylococcus aureus [42] = assay: Antibacterial activity against Staphylococcus aureus SMR4a […] MIC of meropenem by microdilution method; assay type: functional
[43] = Displacement of [14C]benzylpenicillin from PBP3 in Staphylococcus aureus ATCC 6538P
Staphylococcus aureus [44] = assay: Antibacterial activity against Staphylococcus aureus ATCC 6538P by microdilution method; assay type: functional, organism-based
[45] = Displacement of [14C]benzylpenicillin from PBP1A in Escherichia coli NIHJ
Staphylococcus aureus [46] = assay: Antibacterial activity against Staphylococcus aureus SIR2a selected at 2 times MIC of imipenem by microdilution method; assay type: functional
Staphylococcus aureus [47] = assay: Ratio of MIC for Staphylococcus aureus SIR2a selected at 2 times MIC of imipenem to MIC for Staphylococcus aureus ATCC 6538P; assay type: functional
Escherichia coli [48] = assay: Antibacterial activity against Escherichia coli NIHJ assessed as appearance of swollen cells at 1/8 times MIC by Scanning electron microscopy; assay type: functional, organism-based
Pseudomonas aeruginosa [49] = assay: Antibacterial activity against Pseudomonas aeruginosa ATCC 15692 assessed as fold decrease in compound susceptibility after 10 passages relative to control; assay type: functional
Staphylococcus aureus [50] = assay: Ratio of MIC for Staphylococcus aureus SMR4a to MIC for Staphylococcus aureus ATCC 6538P; assay type: functional
Escherichia coli [51] = assay: Ratio of MIC for Escherichia coli EMR2a to MIC for Escherichia coli NIHJ; assay type: functional
Staphylococcus aureus [52] = assay: Ratio of MIC for Staphylococcus aureus SRR2a to MIC for Staphylococcus aureus ATCC 6538P; assay type: functional
[53] = Displacement of [14C]benzylpenicillin from PBP2 in Escherichia coli NIHJ
Escherichia coli [54] = assay: Antibacterial activity against Escherichia coli ERR2b selected at 2 times MIC of tomopenem by microdilution method; assay type: functional
Pseudomonas aeruginosa [55] = assay: Antibacterial activity against Pseudomonas aeruginosa ATCC 15692 assessed as filamentation of cells at 0.125 times MIC by scanning electron microscopy; assay type: functional, organism-based
[56] = Displacement of [14C]benzylpenicillin from PBP3 in Escherichia coli NIHJ
Pseudomonas aeruginosa [57] = assay: Antibacterial activity against Pseudomonas aeruginosa PMR2a selected at 2 times MIC of meropenem by microdilution method; assay type: functional
Escherichia coli [58] = assay: Ratio of MIC for Escherichia coli ERR2a selected to MIC for Escherichia coli NIHJ; assay type: functional
[59] = Displacement of [14C]benzylpenicillin from PBP2 in Pseudomonas aeruginosa ATCC 15692
Pseudomonas aeruginosa [60] = assay: Antibacterial activity against Pseudomonas aeruginosa PIR2a selected at 2 times MIC of imipenem by microdilution method; assay type: functional
Escherichia coli [61] = assay: Antibacterial activity against Escherichia coli ERR4a selected at 4 times MIC of tomopenem by microdilution method; assay type: functional
Escherichia coli [62] = assay: Ratio of MIC for Escherichia coli ERR8a to MIC for Escherichia coli NIHJ; assay type: functional
Staphylococcus aureus [63] = assay: Antibacterial activity against Staphylococcus aureus SMR2a selected at 2 times MIC of meropenem by microdilution method; assay type: functional

Q: What does the source list for `C[C@@H](O)[C@H]1C(=O)N2C(C(=O)O)=C(S[C@H]3C[C@@H](C(=O)N4CC[C@H](NC(=O)CNC(=N)N)C4)N(C)C3)[C@H](C)[C@H]12` [TOMOPENEM]?
A: IC50 [1]: 0.061 µg/mL (≈ 0.113 µM); MIC (Staphylococcus aureus [2]): 0.25 µg/mL; MIC50 (Staphylococcus aureus [3]): 0.12 µg/mL (≈ 0.223 µM); MIC90 (Staphylococcus aureus [3]): 0.12 µg/mL (≈ 0.223 µM); Ratio MIC (Pseudomonas aeruginosa [4]): 32; MBC (Escherichia coli [5]): 0.03 µg/mL (≈ 0.0558 µM); MIC (Escherichia coli [5]): 0.03 µg/mL (≈ 0.0558 µM); IC50 [6]: 0.16 µg/mL (≈ 0.298 µM); MIC (Escherichia coli [7]): 0.06 µg/mL; IC50 [8]: 5.7 µg/mL (≈ 10.6 µM); IC50 [9]: 0.21 µg/mL (≈ 0.391 µM); IC50 [10]: > 32 µg/mL; Ratio MIC (Escherichia coli [11]): 2; Ratio MIC (Escherichia coli [12]): 2; Activity (Escherichia coli [13]): Active; MBC (Pseudomonas aeruginosa [14]): 0.5 µg/mL (≈ 0.93 µM); MIC (Pseudomonas aeruginosa [14]): 0.5 µg/mL (≈ 0.93 µM); Ratio MIC (Escherichia coli [15]): 4; IC50 [16]: 5 µg/mL (≈ 9.3 µM); MIC (Escherichia coli [17]): 0.12 µg/mL; IC50 [18]: 0.011 µg/mL (≈ 0.0205 µM); Ratio MIC (Escherichia coli [19]): 2; MIC (Escherichia coli [20]): 0.06 µg/mL; IC50 [21]: 31 µg/mL (≈ 57.7 µM); IC50 [22]: 0.094 µg/mL (≈ 0.175 µM); Ratio MIC (Pseudomonas aeruginosa [23]): 8; IC50 [24]: 5 µg/mL (≈ 9.3 µM); Ratio MIC (Escherichia coli [25]): 2; IC50 [26]: 1.3 µg/mL (≈ 2.42 µM); MIC (Escherichia coli [27]): 0.06 µg/mL; fold change (FC) (Staphylococcus aureus [28]): 2; IC50 [29]: 0.053 µg/mL (≈ 0.0986 µM); MIC (Escherichia coli [30]): 0.06 µg/mL; IC50 [31]: 0.0035 µg/mL (≈ 0.00651 µM); MIC (Escherichia coli [32]): 0.06 µg/mL; Ratio MIC (Escherichia coli [33]): 2; MIC (Escherichia coli [34]): 0.06 µg/mL; Ratio MIC (Staphylococcus aureus [35]): 4; MIC (Pseudomonas aeruginosa [36]): 8 µg/mL; MIC (Escherichia coli [37]): 0.12 µg/mL; MIC50 (Staphylococcus aureus [38]): 4 µg/mL (≈ 7.44 µM); MIC90 (Staphylococcus aureus [38]): 8 µg/mL (≈ 14.9 µM); Ratio MIC (Pseudomonas aeruginosa [39]): 8; Ratio MIC (Escherichia coli [40]): 4; Activity (Pseudomonas aeruginosa [41]): Active; MIC (Staphylococcus aureus [42]): 0.5 µg/mL; IC50 [43]: > 32 µg/mL; IC50 (Staphylococcus aureus [44]): 0.06 µg/mL (≈ 0.112 µM); MBC (Staphylococcus aureus [44]): 0.06 µg/mL (≈ 0.112 µM); MIC (Staphylococcus aureus [44]): 0.06 µg/mL (≈ 0.112 µM); IC50 [45]: 1.2 µg/mL (≈ 2.23 µM); MIC (Staphylococcus aureus [46]): 0.25 µg/mL; Ratio MIC (Staphylococcus aureus [47]): 4; Activity (Escherichia coli [48]): Active; fold change (FC) (Pseudomonas aeruginosa [49]): 8; ratio (Staphylococcus aureus [50]): 8; Ratio MIC (Escherichia coli [51]): 2; Ratio MIC (Staphylococcus aureus [52]): 4; IC50 [53]: 0.017 µg/mL (≈ 0.0316 µM); MIC (Escherichia coli [54]): 0.12 µg/mL; Activity (Pseudomonas aeruginosa [55]): Active; IC50 [56]: 0.71 µg/mL (≈ 1.32 µM); MIC (Pseudomonas aeruginosa [57]): 2 µg/mL; Ratio MIC (Escherichia coli [58]): 4; IC50 [59]: 0.011 µg/mL (≈ 0.0205 µM); MIC (Pseudomonas aeruginosa [60]): 2 µg/mL; MIC (Escherichia coli [61]): 0.12 µg/mL; Ratio MIC (Escherichia coli [62]): 4; MIC (Staphylococcus aureus [63]): 0.25 µg/mL
